For data set [1], the system named is Mus musculus. Description: Anti-inflammatory activity in C57BL/6 mouse model of DSS-induced ulcerative colitis assessed as decrease in macrophage population in red pulp of spleen administered orally for 8 days. The data set is classed as functional, organism-based. The conditions noted are these: dose 20-40 mg/kg, route po, time 8.0 day.
The subject of data set [2] is Mus musculus. Description: Anti-inflammatory activity in C57BL/6 mouse model of LPS-induced ALI assessed as decrease in thickening of alveolar septa in lung tissue at 20 mg/kg, po measured after 6 hrs with administered on every 12 hrs followed by LPS treatment after 30 mins post-compound treatment by H and E/IHC staining based analysis. The conditions noted are these: time 6.5 hrs. The data set is classed as functional, organism-based.

Data set [3] deals with Interleukin-1 receptor-associated kinase 1 (Homo sapiens) (UniProt P51617). Nature of the data set: Inhibition of IRAK1 (unknown origin) at 10 uM relative to control.
The test system of data set [4] is Mus musculus. Nature of the data set: Anti-inflammatory activity in C57BL/6 mouse model of LPS-induced ALI assessed as decrease in spleen weight at 20 mg/kg, po measured after 6 hrs with administered on every 12 hrs followed by LPS treatment after 30 mins post-compound treatment. The data set is classed as functional, organism-based. Conditions: time 6.5 hrs.
Data set [5] in a line: Half life in Sprague-Dawley rat at 10 mg/kg, po measured for 24 hrs. The data set is classed as ADME, organism-based. Conditions: in vivo.
In data set [6] the test system is RAW264.7. Nature of the data set: Anti-inflammatory activity in mouse RAW264.7 cells assessed as inhibition of LPS-induced IL-6 level at 10 uM preincubated for 30 mins followed by LPS addition measured after 24 hrs by ELISA relative to control. The class given is functional. Conditions: time 24.5 hrs. (In general: An ELISA detects its analyte on a solid surface through an enzyme-linked reagent.)

The subject of data set [7] is RAW264.7. Nature of the data set: Inhibition of MAPK signalling pathway in mouse RAW264.7 cells assessed as reduction in JNK phosphorylation at 2.5 uM preincubated for 2 hrs followed by LPS addition measured after 30 mins by Western blot analysis. The class given is cell-based. Conditions: time 2.5 hrs. (In western blotting, separated proteins are transferred to a membrane and probed.)

The test system of data set [8] is Mus musculus. Nature of the data set: Anti-inflammatory activity in C57BL/6 mouse model of DSS-induced ulcerative colitis assessed as decrease in fusion of white pulp of spleen administered orally for 8 days. The data set is classed as functional, organism-based. Conditions: dose 20-40 mg/kg, route po, time 8.0 day.
The test system of data set [9] is RAW264.7. Description: Anti-inflammatory activity in mouse RAW264.7 cells assessed as inhibition of LPS-induced TNF-alpha mRNA level preincubated for 2 hrs followed by LPS addition measured after 6 hrs by RT-qPCR analysis. The conditions noted are these: dose 1-4 µM, time 8.0 hrs. The data set is classed as functional, cell-based. Background: In qPCR the cycle at which signal appears reflects the starting amount.

A short description of data set [10]: Cmax in Sprague-Dawley rat at 10 mg/kg, po measured for 24 hrs. The class given is ADME, organism-based. The conditions noted are these: in vivo.
In data set [11] the test system is THP-1. Nature of the data set: cells. The conditions noted are these: Homo sapiens.
Description: Anti-inflammatory activity in human THP-1 cells assessed as inhibition of LPS-induced TNF-alpha level preincubated for 30 mins followed by LPS addition measured after 24 hrs by ELISA
Data set [12] relates to Mus musculus. Description: Anti-inflammatory activity in C57BL/6 mouse model of LPS-induced ALI assessed as inhibition of IL-6 level in BALF at 20 mg/kg, po measured after 6 hrs with administered on every 12 hrs followed by LPS treatment after 30 mins post-compound treatment by ELISA. The class given is functional, organism-based. Conditions: time 6.5 hrs.
Data set [13] in a line: Acute toxicity in C57BL/6 mouse assessed as change in daily activities at 100 to 200 mg/kg, po measured for 10 days. The class given is organism-based. The conditions noted are these: in vivo, 240 h, dose 100-200 mg/kg, time 10 day.
The subject of data set [14] is THP-1. Description: cells. The conditions noted are these: Homo sapiens. The source holds these as a separate data set.
Description: Anti-inflammatory activity in human THP-1 cells assessed as inhibition of LPS-induced IL-6 level preincubated for 30 mins followed by LPS addition measured after 24 hrs by ELISA
Data set [15] deals with Mus musculus. Description: Anti-inflammatory activity in C57BL/6 mouse model of LPS-induced ALI assessed as decrease in protein concentration in BALF at 20 mg/kg, po measured after 6 hrs with administered on every 12 hrs followed by LPS treatment after 30 mins post-compound treatment. Conditions: time 6.5 hrs. The data set is classed as functional, organism-based.
The nature of data set [16]: Acute toxicity in C57BL/6 mouse assessed as change in pathological change in spleen at 100 to 200 mg/kg, po measured for 10 days by H and E staining based analysis. Conditions: in vivo, 240 h, dose 100-200 mg/kg, time 10 day. The class given is organism-based.
The test system of data set [17] is RAW264.7. Description: Inhibition of MAPK signalling pathway in mouse RAW264.7 cells assessed as reduction in p38 phosphorylation at 2.5 uM preincubated for 2 hrs followed by LPS addition measured after 30 mins by Western blot analysis. The data set is classed as cell-based. The conditions noted are these: time 2.5 hrs.
Data set [18] in a line: Tmax in Sprague-Dawley rat at 10 mg/kg, po measured for 24 hrs. The class given is ADME, organism-based. Conditions: in vivo.
Data set [19] concerns Mus musculus. Description: Anti-inflammatory activity in C57BL/6 mouse model of DSS-induced ulcerative colitis assessed as colon length at 20 mg/kg, po administered for 8 days (reference value: 5.1 cm). The data set is classed as functional, organism-based. Conditions: time 8.0 day.
The subject of data set [20] is Mus musculus. Description: Anti-inflammatory activity in C57BL/6 mouse model of DSS-induced ulcerative colitis assessed as decrease in DAI score at 20 to 40 mg/kg, po administered for 8 days. The class given is functional, organism-based. The conditions noted are these: dose 20-40 mg/kg, time 8.0 day.
Data set [21] deals with Mus musculus. Nature of the data set: Anti-inflammatory activity in C57BL/6 mouse model of LPS-induced ALI assessed as inhibition of TNF-alpha level in serum at 20 mg/kg, po measured after 6 hrs with administered on every 12 hrs followed by LPS treatment after 30 mins post-compound treatment by ELISA. The data set is classed as functional, organism-based. The conditions noted are these: time 6.5 hrs.

Data set [22] in a line: Cmax in Sprague-Dawley rat at 1 mg/kg, iv measured for 24 hrs. The data set is classed as ADME, organism-based. The conditions noted are these: in vivo.
The subject of data set [23] is RAW264.7. Description: cells. The conditions noted are these: Mus musculus.
Description: Anti-inflammatory activity in mouse RAW264.7 cells assessed as inhibition of LPS-induced IL-6 level preincubated for 30 mins followed by LPS addition measured after 24 hrs by ELISA
The target of data set [24] is Mitogen-activated protein kinase 14 (Homo sapiens) (UniProt Q16539). Nature of the data set: Inhibition of p38-alpha (unknown origin) at 10 uM relative to control.

Activity calls are given as the source filed them.

Chain of Interleukin-1 receptor-associated kinase 1 (Homo sapiens) (P51617 whole entry, looked up): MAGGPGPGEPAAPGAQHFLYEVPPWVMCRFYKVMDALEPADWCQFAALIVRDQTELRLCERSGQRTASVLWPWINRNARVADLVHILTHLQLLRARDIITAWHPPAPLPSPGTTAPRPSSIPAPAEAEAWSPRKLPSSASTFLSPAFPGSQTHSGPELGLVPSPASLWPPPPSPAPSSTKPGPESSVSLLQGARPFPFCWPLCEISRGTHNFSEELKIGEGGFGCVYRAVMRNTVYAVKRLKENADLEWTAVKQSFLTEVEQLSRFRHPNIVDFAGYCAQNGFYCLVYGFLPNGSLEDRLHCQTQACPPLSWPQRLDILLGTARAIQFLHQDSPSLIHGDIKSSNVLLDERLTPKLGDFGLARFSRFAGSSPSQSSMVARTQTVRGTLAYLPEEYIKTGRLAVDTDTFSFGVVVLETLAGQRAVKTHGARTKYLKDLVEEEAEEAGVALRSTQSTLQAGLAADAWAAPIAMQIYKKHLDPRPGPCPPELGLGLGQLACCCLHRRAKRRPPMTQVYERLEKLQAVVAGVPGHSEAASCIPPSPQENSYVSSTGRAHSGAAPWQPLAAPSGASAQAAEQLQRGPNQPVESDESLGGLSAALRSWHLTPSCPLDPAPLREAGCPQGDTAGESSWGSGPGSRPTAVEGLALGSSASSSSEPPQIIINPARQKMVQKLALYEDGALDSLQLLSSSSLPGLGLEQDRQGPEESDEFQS
Chain of Mitogen-activated protein kinase 14 (Homo sapiens) (Q16539 whole entry): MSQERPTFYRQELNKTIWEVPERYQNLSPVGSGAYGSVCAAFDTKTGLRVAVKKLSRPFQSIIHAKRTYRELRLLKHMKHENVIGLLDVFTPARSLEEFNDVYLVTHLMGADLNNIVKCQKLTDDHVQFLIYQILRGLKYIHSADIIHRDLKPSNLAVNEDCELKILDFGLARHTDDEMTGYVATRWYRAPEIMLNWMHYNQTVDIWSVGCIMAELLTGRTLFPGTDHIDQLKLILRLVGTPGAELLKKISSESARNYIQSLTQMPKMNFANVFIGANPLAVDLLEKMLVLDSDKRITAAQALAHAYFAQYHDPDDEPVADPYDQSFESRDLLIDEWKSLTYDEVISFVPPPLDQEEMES

As a reminder, the inhibition is the relative decrease from the control value, in per cent. In general, half-life refers to the time needed for the level to fall by half in the phase considered. A low value points to rapid decline. As a reminder, the Cmax is the maximum level reached in the sampled fluid or tissue. By IC50 is commonly meant the concentration needed to halve the response being measured. Low values mean greater potency in that assay, high ones weaker potency in that assay. The Tmax is the time from dosing to the highest level. Consider `COc1cc2c(O[C@H]3CC[C@@H](N)CC3)ncnc2cc1OCc1cccc(Br)c1`, for which the Activity entry in data set [1] was “Dose-dependent-effect”; in [8] it was “Dose-dependent-effect”; in [13], “Non-toxic”; in data set [16] it was “Non-toxic”. For the same compound, the result in [2], in [4], in data set [15], in data set [19] and in data set [20] was Active. The inhibition is 88.2% in data set [3], “Dose-dependent-effect” in data set [9] and 31.4% in data set [24]. This compound gave a half-life in data set [5] of 3 h. For the same compound, the inhibition at 10 µM in data set [6] stood at 73.6%. For the same compound, the inhibition entry in data set [7], in [12], in [17] and in data set [21] was “Active” throughout. For the same compound, the Cmax was determined as 856 ng/mL in [10] and 7280 ng/mL in data set [22]. For the same compound, the results for the IC50 in [11], in [14] and in data set [23] were 5030 nM, 960 nM and 480 nM, respectively. In addition, in data set [18], the Tmax is 2 h.

These data come from ChEMBL document CHEMBL6109094, “Anti-inflammatory agents design via the fragment hybrid strategy in the discovery of compound c1 for treating ALI and UC” (Eur J Med Chem, 2025).
